# Counter-ions that a name gives are not always drawn.
# Tests used:
# Format in all cases: cell-based
# [1] = tested on: Yersinia enterocolitica NCTC 11176; assay: Agar plate multi-point inoculation, colour; settings: Columbia agar, FAC 500 mg/L, substrate 300 mg/L, 37° C. 18 h in air
# [2] = tested on: clinical isolates of E. coli
# [3] = tested on: Candida albicans ATCC 90028; settings: Columbia agar, FAC 500 mg/L, substrate 300 mg/L, 37° C. 18 h in air
# [4] = tested on: Enterococcus faecium NCTC 7171; assay: Agar plate multi-point inoculation, colour
# [5] = tested on: Serratia marcescens NCTC 10211; assay: Agar plate multi-point inoculation, colour
# [6] = tested on: Enterobacter cloacae NCTC 11936; assay: Agar plate multi-point inoculation, colour
# [7] = tested on: Burkholderia cepacia 1222; assay: Agar plate multi-point inoculation, colour; settings: Columbia agar, FAC 500 mg/L, substrate 300 mg/L, 37° C. 18 h in air
# [8] = tested on: E. coli expressing both β-D-glucuronidase and β-D-galactosidase; assay: Broth medium with ONPG (dual chromogenic system); settings: broth with FAC, ONPG 1.5 g/L
# Experimental: (§1) The two indoxyl glucuronides used produce insoluble endpoints following hydrolysis, as does the CPS ID 3 medium. It was therefore necessary to test these two substrates on agar plates. In contrast, DHN-β-D-glucuronide (12) gives a much more soluble endpoint best suited to liquid media and was therefore tested in a broth medium. The broth was prepared using proteose peptone (2 g), NaCl (1 g) and FAC (100 mg) in DI water (180 mL). This mixture was autoclaved and cooled to room temperature before being dispensed into bijoux (100×1.8 mL). DHN-β-D-glucuronide CHA salt (12a) (60 mg) was dissolved in water (20 mL) and filtered to sterilize before being aseptically dispensed into successive bijoux (0.2 mL) containing the broth solution. The broth/substrate solutions were then inoculated with bacterial suspensions made up to 0.5 McFarland standard (2 μL per bijoux). X-β-D-glucuronide CHA salt (Glycosynth Ltd, Warrington, UK) (10 mg) was dissolved in NMP (200 μL). […]
# (§2) Because many E. coli produce both β-D-glucuronidase and β-D-galactosidase, DHN-β-D-glucuronide (12a) was tested as in the broth medium described above but in the presence of ONPG (at a concentration of 1.5 g/L). […] The colour of these solutions of mixed chromogens could be very readily distinguished with the unaided eye from the yellow colour of those strains, such as E. cloacae, that produced β-D-galactosidase only. […]
# Shigella sonnei = assay: Broth medium with ONPG (dual chromogenic system); settings: combination with ONPG
# Experimental: as §1, §2
# [9] = tested on: Salmonella typhimurium NCTC 74; assay: Agar plate multi-point inoculation, colour
# [10] = tested on: Staphylococcus epidermidis NCTC 11047; assay: Agar plate multi-point inoculation, colour
# [11] = tested on: Listeria monocytogenes NCTC 11994; assay: Agar plate multi-point inoculation, colour
# [12] = tested on: Staphylococcus aureus NCTC 6571; assay: Agar plate multi-point inoculation, colour
# E. faecalis NCTC 775 = assay: Glucuronide screen, broth containing FAC; settings: E. faecalis NCTC 775, broth
# [13] = tested on: Steptococcus pyogenes NCTC 8306; assay: Agar plate multi-point inoculation, colour
# [14] = tested on: Enterococcus faecalis NCTC 775; assay: Agar plate multi-point inoculation, colour
# E. cloacae = assay: Glucuronide screen, broth containing FAC
# [15] = tested on: Bacillus subtilis NCTC 9372; assay: Agar plate multi-point inoculation, colour
# [16] = tested on: Pseudomonas aeruginosa NCTC 10662; assay: Agar plate multi-point inoculation, colour
# [17] = tested on: Citrobacter freundii NCTC 9750 or 46262; assay: Agar plate multi-point inoculation, colour; settings: Columbia agar, FAC 500 mg/L, substrate 300 mg/L, 37° C. 18 h in air
# [18] = tested on: Staphylococcus aureus (MRSA) NCTC 11939; assay: Agar plate multi-point inoculation, colour; settings: Columbia agar, FAC 500 mg/L, substrate 300 mg/L, 37° C. 18 h in air
# [19] = tested on: Escherichia coli NCTC 10418; assay: Agar plate multi-point inoculation, colour
# [20] = tested on: Providencia rettgeri NCTC 7475; assay: Agar plate multi-point inoculation, colour
# [21] = tested on: Candida glabrata NCPF 3943; assay: Agar plate multi-point inoculation, colour
# [22] = tested on: Morganella morganii 462403 (wild); assay: Agar plate multi-point inoculation, colour; settings: Columbia agar, FAC 500 mg/L, substrate 300 mg/L, 37° C. 18 h in air
# E. faecium NCTC 7171 = assay: Glucuronide screen, broth containing FAC; settings: E. faecium NCTC 7171, broth
smiles,measurement,setting,value
"O=C(O)C1OC(Oc2cc3ccccc3cc2O)C(O)C(O)C1O [Compound 12a, DHN-β-D-glucuronide CHA Salt]",Colour,[1],−
same,% Sensitivity,[2],82%
same,Colour,[2],Purple and −
same,Negative strains,[2],18
same,Positive strains,[2],82
same,Colour,[3],−
same,Colour,[4],−
same,Colour,[5],−
same,Colour,[6],−
same,Colour,[7],−
same,colour of solutions,[8],purple-brown solutions
same,detection of β-D-glucuronidase activity,Shigella sonnei,able to detect
same,Colour,[9],−
same,Colour,[10],−
same,Colour,[11],−
same,Colour,[12],−
same,Colour,E. faecalis NCTC 775,−
same,Colour,[13],−
same,Colour,[14],−
same,Colour,"E. cloacae; E. cloacae 260329R, broth",−
same,Colour,"E. cloacae; E. cloacae NCTC 11936, broth",−
same,Colour,[15],−
same,Colour,[16],−
same,Colour,[17],−
same,Colour,[18],−
same,Colour,[19],++
same,hydrolysis of substrate (judged by colour),[19],strong colour
same,Colour,[20],−
same,Colour,[21],−
same,Colour,[22],−
same,Colour,E. faecium NCTC 7171,−

# From patent US9938562B2, “Naphthalene derived chromogenic enzyme substrates” (Glycosynth Limited, priority 2013, dated 2018)
